{"source": "patent US20240327790A1", "about": "“METHODS AND COMPOSITIONS RELATING TO 3-D CULTURES” (PRESIDENT AND FELLOWS OF HARVARD COLLEGE, priority 2021, published 2024)", "key": {"[1]": {"system": "human skin model, primary human adult diabetic keratinocytes", "experiment": "Irritation test (MTT viability) on skin model with adult diabetic donor keratinocytes", "assay_type": "cell-based", "conditions": "2 mg/mL SDS in PBS, 50 μL on top of 14-day diabetic sample, 18 hours at 37° C., MTT 3 hours, absorbance 490 nm", "experimental": "(§1) One potential use-case for these skin models is as an irritation model for pharmaceuticals, cosmetics, or occupational health studies. To evaluate the use of these stamped models in irritation tests, a common test method^21 was adapted. Sodium dodecyl sulfate (SDS) was applied to the top of these samples after 14 days of culture and incubated at 37° C. for 18 hours. After, an MTT assay was used to measure the cell viability. […] If the SDS penetrates through the epidermal barrier, the sample will not be viable and give a low signal in the MTT assay. […] Moreover, the standard for this test method is that the normalized viability reaches 50% between 1-3 mg/mL of SDS added to the samples^21. The samples here met this standard, as the 3 mg/mL neonatal samples have absorbance values greater than 50% of the negative control, and the diabetic sample with 2 mg/mL SDS has absorbance value greater than 50% of the negative control.\n(§2) Irritation Test. After keratinocytes had grown for 14 days, 50 μL of SDS at a concentration between 1-3 mg/mL in PBS was applied to the top of each skin sample. 1×PBS was applied as a negative control. […] After the substrate was completely dissolved, 50 μL of isopropanol formazan solution was transferred from each well to a 48 well plate, which was measured on a plate reader using the absorbance setting at 490 nm."}, "[2]": {"system": "human skin models, primary human neonatal keratinocytes", "experiment": "Irritation test (MTT viability) on skin models with neonatal keratinocytes", "assay_type": "cell-based", "conditions": "3 mg/mL SDS in PBS, 50 μL on top of 14-day neonatal samples, 18 hours at 37° C., MTT 3 hours, absorbance 490 nm", "experimental": "as §1, §2"}}}
{"smiles": "CCCCCCCCCCCCOS(=O)(=O)[O-].[Na+]", "note": "[SDS, Sodium dodecyl sulfate]", "values": [{"measurement": "absorbance value (MTT viability) relative to negative control", "setting": "[1]", "result": "greater than 50 % of the negative control"}, {"measurement": "absorbance value (MTT viability) relative to negative control", "setting": "[2]", "result": "greater than 50 % of the negative control"}]}
